Here are results for 1 compound from patent US20060052345A1, “Quinazolinone compounds as calcilytics” (NPS Pharmaceuticals, Inc., priority 2002, published 2006).

A short description of data set [1]: Plasma levels of compound 17 after intravenous injection in normal rats (LC-MS/MS). Type of data set: in vivo, rat. The following applies: 3 or 10 μmol/kg intravenous injection, normal conscious male Sprague-Dawley rats, FIG. 1. How it is done: (§1) 2-(2-Hydroxy-phenyl)-3-phenethyl-3H-quinazolin-4-one (compound 17) (3 or 10 μmol/kg) or vehicle was administered by intravenous injection over about 15 seconds to normal conscious male Sprague-Dawley rats with chronic indwelling arterial and venous catheters. Arterial blood samples were collected immediately before, and at 1, 5, 10, and 30 min after the start of the injection for measurement of the levels of parathyroid hormone (PTH), ionized calcium (Ca^2+) and compound 17 in plasma. PTH was measured using a specific rat PTH (1-84) ELISA (Immutopics, San Clemente, Calif.) and compound 17 was quantified by an LC-MS/MS method. Positive ions were generated by turbo ionspray and were subsequently fragmented by collision-induced dissociation, so that compound 17 could be detected by selected-reaction monitoring.

For another data set, the system named is ionized calcium (Ca^2+). Description: Plasma ionized calcium levels after intravenous injection in normal rats. It counts as in vivo, rat. The following applies: 3 or 10 μmol/kg intravenous injection, normal conscious male Sprague-Dawley rats, up to 30 min (not shown). As to the method:
as §1

The subject of data set [2] is parathyroid hormone (PTH). Description: Plasma PTH levels after intravenous injection in normal rats (rat PTH (1-84) ELISA). It counts as in vivo. The following applies: 3 or 10 μmol/kg intravenous injection, normal conscious male Sprague-Dawley rats, FIG. 2. As to the method: as §1
In general terms: ELISA stands for enzyme-linked immunosorbent assay.

Where only a bound is given, the exact number is not on record here.

With `O=c1c2ccccc2nc(-c2ccccc2O)n1CCc1ccccc1` [compound 17, 2-(2-Hydroxy-phenyl)-3-phenethyl-3H-quinazolin-4-one], in data set [1], the “course of plasma levels of compound after the maximum” value is listed as “declined rapidly during the next 10-30 min” and the “time after injection at which plasma levels of compound were maximal” value is 1 min. For the same compound, in the data set with ionized calcium (Ca^2+), the “changes in plasma Ca^2+ levels” value is “no consistent changes”. In addition, in data set [2], the “effect on plasma PTH levels” value is “rapid, but transient dose-related increase”; the “time after injection at which plasma PTH levels were maximal” value is 1 min; the “time after injection by which plasma PTH levels had returned to pre-dose levels” value is not above 10 min.
